Results on two compounds are retold here after article PMC5746282, “Polypyridylruthenium(II) complexes exert anti-schistosome activity and inhibit parasite acetylcholinesterases” (PLoS Neglected Tropical Diseases, 2017).

Read-outs that look alike come from different tables or passages of the source.

Assay [1] relates to human bile duct cell line H69. The experiment in a line: MTT cytotoxicity assay. Format: cell-based. The following applies: 0.1 μM, 72 h.
The target of assay [2] is acetylcholinesterase (AChE). Format: biochemical, S. haematobium.
In assay [3] the test system is nucleotide pyrophosphatase-phosphodiesterase 5 (SmNPP-5). Format: biochemical, S. mansoni. The settings on record: 10 µM.
The subject of assay [4] is alkaline phosphatase (AP). Format: biochemical, S. mansoni. The following applies: 10 µM.
Assay [5] deals with acetylcholinesterase (AChE). Format: biochemical, S. mansoni.
Assay [6] deals with acetylcholinesterase (AChE). Format: biochemical, S. mansoni. The settings on record: 1 µM.

Compound `COP(=O)(OC)OC=C(Cl)Cl` [Dichlorvos, dichlorvos] yielded a cells killed in assay [1] of 100%.

By IC50 is commonly meant the midpoint of a concentration-inhibition curve. Read a high IC50 as weaker potency. Turning to [Ru(phen)2(Me2bpy)]^2+, the IC50 in assay [2] came out at 90.2 ± 1.2 µM; in assay [5], 67 ± 11.6 µM. The entries for the “AChE Inhibition (%)” value in assay [2] (1 µM), in assay [5] (1 µM) and in assay [6] were 13.3 ± 1.8%, 9.3 ± 1.8% and 66.5 ± 5.8%, respectively. Further, in assay [3], the “SmNPP-5 Inhibition (%)” value was found to be 2%. For the same compound, the “AP Inhibition (%)” value in assay [4] is 3%.
